In patent publication US20230064983A1 (priority 2020, published 2023):
Where “and” joins values, the source holds several entries; their conditions need not be identical. Equal entries are not always repeated.

Assays:
[1] = biological target: Ba/F3-EGFR-D770_N771insSVD cells (Homo sapiens, UniProt P00533, DUP768-770, cells depend on it); test: Ba/F3 cell survival assay, EGFR D770_N771insSVD; format: cell-based; conditions: Cell Titer-Glo, 48 h, without IL-3; Table 4; read-out: BA/F3 (insSVD) IC50
Ba/F3-EGFR-D770_N771insSVD cells, sequence (P00533 with tags, fused parts or gaps DUP768-770): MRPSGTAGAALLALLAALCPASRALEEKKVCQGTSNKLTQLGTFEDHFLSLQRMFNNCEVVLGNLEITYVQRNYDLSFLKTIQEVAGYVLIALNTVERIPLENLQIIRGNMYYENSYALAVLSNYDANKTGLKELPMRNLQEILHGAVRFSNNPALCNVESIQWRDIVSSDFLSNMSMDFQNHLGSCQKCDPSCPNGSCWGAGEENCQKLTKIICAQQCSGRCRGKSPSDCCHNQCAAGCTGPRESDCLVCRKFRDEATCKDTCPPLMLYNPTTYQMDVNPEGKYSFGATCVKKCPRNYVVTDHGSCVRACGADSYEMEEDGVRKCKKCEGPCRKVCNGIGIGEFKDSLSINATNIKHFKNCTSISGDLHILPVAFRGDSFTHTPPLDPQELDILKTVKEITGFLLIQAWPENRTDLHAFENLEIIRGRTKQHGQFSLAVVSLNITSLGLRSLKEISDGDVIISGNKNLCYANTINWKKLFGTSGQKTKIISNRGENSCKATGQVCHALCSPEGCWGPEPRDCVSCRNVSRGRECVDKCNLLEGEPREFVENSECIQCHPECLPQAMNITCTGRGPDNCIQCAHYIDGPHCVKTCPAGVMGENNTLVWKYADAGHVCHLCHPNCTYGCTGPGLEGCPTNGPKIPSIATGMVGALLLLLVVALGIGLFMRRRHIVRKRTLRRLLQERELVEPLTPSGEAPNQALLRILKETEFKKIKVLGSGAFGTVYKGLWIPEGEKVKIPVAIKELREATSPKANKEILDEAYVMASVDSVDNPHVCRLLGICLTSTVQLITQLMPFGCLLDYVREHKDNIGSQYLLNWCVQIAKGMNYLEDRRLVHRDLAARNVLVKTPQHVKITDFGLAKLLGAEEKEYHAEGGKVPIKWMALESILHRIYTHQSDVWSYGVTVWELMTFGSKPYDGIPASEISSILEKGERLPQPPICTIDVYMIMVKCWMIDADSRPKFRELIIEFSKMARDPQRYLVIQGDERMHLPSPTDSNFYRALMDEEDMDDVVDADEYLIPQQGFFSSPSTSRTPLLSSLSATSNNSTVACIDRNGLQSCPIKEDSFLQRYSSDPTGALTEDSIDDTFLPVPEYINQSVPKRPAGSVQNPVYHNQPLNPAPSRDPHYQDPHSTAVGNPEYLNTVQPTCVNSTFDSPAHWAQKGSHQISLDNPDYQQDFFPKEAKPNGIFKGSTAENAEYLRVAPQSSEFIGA

Ba/F3-EGFR-WT cells = Ba/F3-EGFR-WT cells (Homo sapiens, UniProt P00533); test: Ba/F3 cell survival assay, wild type EGFR; format: cell-based; conditions: Cell Titer-Glo, 48 h, with 10 ng/mL EGF; Table 4; read-out: BA/F3 (wild type) IC50
Ba/F3-EGFR-WT cells, sequence (P00533 whole entry, looked up, stated change not applied): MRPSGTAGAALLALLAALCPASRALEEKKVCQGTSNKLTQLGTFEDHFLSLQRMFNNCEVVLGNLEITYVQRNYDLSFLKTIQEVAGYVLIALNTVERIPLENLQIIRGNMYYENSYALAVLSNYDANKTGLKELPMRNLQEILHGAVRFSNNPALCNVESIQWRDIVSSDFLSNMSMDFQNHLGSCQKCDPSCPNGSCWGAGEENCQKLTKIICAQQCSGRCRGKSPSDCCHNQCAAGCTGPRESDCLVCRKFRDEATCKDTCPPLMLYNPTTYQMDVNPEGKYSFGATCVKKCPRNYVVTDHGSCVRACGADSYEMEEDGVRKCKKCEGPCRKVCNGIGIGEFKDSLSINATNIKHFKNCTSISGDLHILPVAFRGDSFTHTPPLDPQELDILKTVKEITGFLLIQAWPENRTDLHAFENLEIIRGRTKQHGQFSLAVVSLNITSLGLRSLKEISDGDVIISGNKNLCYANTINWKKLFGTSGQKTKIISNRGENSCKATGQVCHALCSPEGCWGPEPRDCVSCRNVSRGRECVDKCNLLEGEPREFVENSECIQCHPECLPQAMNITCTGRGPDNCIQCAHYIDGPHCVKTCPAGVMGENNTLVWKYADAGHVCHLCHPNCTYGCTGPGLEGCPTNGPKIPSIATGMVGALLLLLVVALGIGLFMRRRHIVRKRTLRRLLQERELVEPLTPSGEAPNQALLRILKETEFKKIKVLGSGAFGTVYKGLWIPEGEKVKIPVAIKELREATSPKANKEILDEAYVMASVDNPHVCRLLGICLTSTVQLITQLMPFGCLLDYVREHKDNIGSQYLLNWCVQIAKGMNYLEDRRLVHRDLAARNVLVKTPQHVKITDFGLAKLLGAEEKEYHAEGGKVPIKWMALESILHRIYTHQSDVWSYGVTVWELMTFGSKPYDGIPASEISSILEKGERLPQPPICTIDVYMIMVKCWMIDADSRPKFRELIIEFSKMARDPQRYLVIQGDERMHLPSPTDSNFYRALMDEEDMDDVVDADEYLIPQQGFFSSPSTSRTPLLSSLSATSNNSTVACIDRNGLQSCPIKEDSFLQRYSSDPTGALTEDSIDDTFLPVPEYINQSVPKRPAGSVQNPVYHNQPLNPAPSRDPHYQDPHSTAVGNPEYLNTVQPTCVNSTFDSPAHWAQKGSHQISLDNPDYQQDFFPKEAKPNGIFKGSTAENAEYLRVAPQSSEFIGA

[2] = biological target: T1, EGFR with insertion SVD between D770 and N771 (mutEGFR D770_N771insSVD) (Homo sapiens, UniProt P00533, DUP768-770); test: Exon20-Mutant-EGFR(D770_N771insSVD) kinase assay (TR-FRET); format: biochemical; conditions: 2 mM ATP, Table 2
T1 construct: amino acids R669 to A1210; made in house; host or cells: Sf9 insect cells (baculovirus)
T1 sequence (P00533 other isoform, or with tags, fused parts or gaps DUP768-770): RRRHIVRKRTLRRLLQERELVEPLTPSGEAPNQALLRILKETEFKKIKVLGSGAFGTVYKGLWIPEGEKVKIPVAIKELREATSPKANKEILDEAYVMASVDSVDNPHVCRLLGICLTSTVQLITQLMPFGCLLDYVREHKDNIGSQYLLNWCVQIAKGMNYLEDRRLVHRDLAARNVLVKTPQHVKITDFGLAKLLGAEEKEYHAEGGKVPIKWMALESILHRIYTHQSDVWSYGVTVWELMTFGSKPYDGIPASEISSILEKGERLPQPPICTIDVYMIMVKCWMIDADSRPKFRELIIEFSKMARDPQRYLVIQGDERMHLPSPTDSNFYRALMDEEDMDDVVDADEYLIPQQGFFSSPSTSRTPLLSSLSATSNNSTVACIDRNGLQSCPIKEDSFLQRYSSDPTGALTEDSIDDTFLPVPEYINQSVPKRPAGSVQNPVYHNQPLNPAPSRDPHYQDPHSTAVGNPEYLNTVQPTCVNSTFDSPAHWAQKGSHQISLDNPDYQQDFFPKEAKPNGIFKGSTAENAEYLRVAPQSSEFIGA

Bub1 = biological target: T2, Bub1 (Homo sapiens, UniProt O43683); test: Bub1 high ATP kinase assay (TR-FRET); format: biochemical; conditions: Bub1 high ATP (2 mM) IC50, TR-FRET, 2 mM ATP; Table 3
T2 construct: catalytic domain of human Bub1 (amino acids 704-1085); His6 (N); made in house; host or cells: insect cells (Hi5)
T2 sequence (O43683 704-1085): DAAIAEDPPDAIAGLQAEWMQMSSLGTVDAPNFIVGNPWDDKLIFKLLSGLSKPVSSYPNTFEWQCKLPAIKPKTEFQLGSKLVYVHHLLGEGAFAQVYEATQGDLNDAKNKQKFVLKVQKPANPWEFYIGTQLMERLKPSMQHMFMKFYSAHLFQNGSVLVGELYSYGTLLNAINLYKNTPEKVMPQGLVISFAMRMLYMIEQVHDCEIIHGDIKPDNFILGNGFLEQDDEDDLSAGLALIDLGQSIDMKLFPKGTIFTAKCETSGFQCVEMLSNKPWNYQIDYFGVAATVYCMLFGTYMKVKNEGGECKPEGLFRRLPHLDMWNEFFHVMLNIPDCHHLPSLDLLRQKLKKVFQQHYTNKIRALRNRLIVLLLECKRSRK
Text: Bub1 high ATP Kinase Assay
Bub1-inhibitory activity of compounds of the present invention at a high ATP concentration was quantified employing the Bub1 TR-FRET high ATP kinase assay as described in the following paragraphs.
N-terminally His6-tagged recombinant catalytic domain of human Bub1 (amino acids 704-1085), expressed in insect cells (Hi5) and purified by Ni-NTA affinity chromatography and subsequent size exclusion chromatography, was used as enzyme. As substrate for the kinase reaction the biotinylated peptide biotin-Ahx-[…] (C-terminus in amid form) was used which can be purchased e.g. form the company Biosyntan (Berlin, Germany).
Then the kinase reaction was started by the addition of 2 μl of a solution of Bub1 in assay buffer and the resulting mixture was incubated for a reaction time of 60 min at 22° C. The concentration of Bub1 was adjusted depending of the activity of the enzyme lot and was chosen appropriate to have the assay in the linear range, a typical concentration is about 200 ng/ml. The reaction was stopped by the addition of 3 μl of a solution of TR-FRET detection reagents (0.167 μM streptavidine-XL665 [Cisbio Bioassays, Codolet, France] and 1.67 nM anti-phosho-Serine antibody [Merck Millipore, cat. #35-002] and 0.67 nM LANCE EU-W1024 labeled anti-mouse IgG antibody [Perkin-Elmer, product no. AD0077, as an alternative a Terbium-cryptate-labeled anti-mouse IgG antibody from Cisbio Bioassays can be used]) in an aqueous EDTA-solution (83.3 mM EDTA, 0.2% (w/v) bovine serum albumin in 100 mM HEPES pH 7.5).
The resulting mixture was incubated 1 h at 22° C. to allow the formation of complex between the phosphorylated biotinylated peptide and the detection reagents. Subsequently the amount of phosphorylated substrate was evaluated by measurement of the resonance energy transfer from the Eu-chelate to the streptavidine-XL. Therefore, the fluorescence emissions at 620 nm and 665 nm after excitation at 350 nm was measured in a TR-FRET reader, e.g. a Pherastar or Pherastar FS (both from BMG Labtechnologies, Offenburg, Germany) or a Viewlux (Perkin-Elmer). The ratio of the emissions at 665 nm and at 622 nm was taken as the measure for the amount of phosphorylated substrate.

mutEGFR (D770_N771insSVD) kinase assay IC50 [2]	IC50 (Bub1) [nM]	Compound	GI50 [1] [nM]	GI50 (Ba/F3-EGFR-WT cells) [nM]
0.213 nM	6220	C[C@@H]1Cc2[nH]c(-c3ccncc3OCC3COCCO3)c(Nc3cccc(F)c3CC(F)F)c2C(=O)N1 (stereo partly drawn) [Example 108, (6R)-3-[2-(2,2-difluoroethyl)-3-fluoro-anilino]-2-[3-(1,4-dioxan-2-ylmethoxy)-4-pyridyl]-6-methyl-1,5,6,7-tetrahydropyrrolo[3,2-c]pyridin-4-one]	141	1400
0.125 nM	9700	COc1c(Cl)cccc1Nc1c(-c2ccncc2OC[C@@H]2CCCO2)[nH]c2c1C(=O)N[C@H](C)C2 (single isomer, unassigned) [Example 5]	20.2	331
0.0981 nM and <0.0725 nM	399	COc1c(Cl)cccc1Nc1c(-c2ccncc2OC[C@@H]2CCCO2)[nH]c2c1C(=O)NC(C(F)(F)F)C2 (single isomer, unassigned) [Example 40]	64.3	480
0.315 nM	479	COc1c(Cl)cccc1Nc1c(-c2ccncc2OCC2COCCO2)[nH]c2c1C(=O)NC1(CCC1)C2 (single isomer, unassigned) [Example 124, 3-(3-chloro-2-methoxy-anilino)-2-[3-(1,4-dioxan-2-ylmethoxy)-4-pyridyl]spiro[5,7-dihydro-1H-pyrrolo[3,2-c]pyridine-6,1′-cyclobutane]-4-one]	26	513
0.796 nM	> 20000	COc1c(Cl)cccc1Nc1c(-c2ccncc2OCC2(C)CCO2)[nH]c2c1C(=O)NCC2CCO (single isomer, unassigned) [Example 23, 3-(3-chloro-2-methoxyanilino)-7-(2-hydroxyethyl)-2-{3-[(2-methyloxetan-2-yl)methoxy]pyridin-4-yl}-1,5,6,7-tetrahydro-4H-pyrrolo[3,2-c]pyridin-4-one]	920	7380
0.526 nM	3590	CCc1c(Cl)cccc1Nc1c(-c2ccncc2OC[C@@H]2CCCO2)[nH]c2c1C(=O)N[C@H](C)C2 [Example 109, (6R)-3-(3-chloro-2-ethylanilino)-6-methyl-2-(3-{[(2S)-oxolan-2-yl]methoxy}pyridin-4-yl)-1,5,6,7-tetrahydro-4H-pyrrolo[3,2-c]pyridin-4-one]	66.9	944
0.269 nM	1730	Cc1c(Cl)cccc1Nc1c(-c2ccncc2OCC2COCCO2)[nH]c2c1C(=O)NCC2C (single isomer, unassigned) [Example 69, 3-(3-chloro-2-methyl-anilino)-2-[3-(1,4-dioxan-2-ylmethoxy)-4-pyridyl]-7-methyl-1,5,6,7-tetrahydropyrrolo[3,2-c]pyridin-4-one]	72.4	2180
0.657 nM	> 20000	COc1c(Cl)cccc1Nc1c(-c2ccncc2OCC2CCCCN2C)[nH]c2c1C(=O)N[C@H](C)C2 (single isomer, unassigned) [Example 84]	16.1	379
0.143 nM	2710	COc1c(Cl)cccc1Nc1c(-c2ccncc2OCC(C)OC)[nH]c2c1C(=O)N[C@H](C)C2 (single isomer, unassigned) [Example 82]	13.9	248
0.179 nM	1160	COc1c(Cl)cccc1Nc1c(-c2ccncc2OCC2COC(C)(C)CO2)[nH]c2c1C(=O)NC1(CC1)C2 (single isomer, unassigned) [Example 134, 3′-(3-chloro-2-methoxyanilino)-2′-(3-{[5,5-dimethyl-1,4-dioxan-2-yl]methoxy}pyridin-4-yl)-1′,7′-dihydrospiro[cyclopropane-1,6′-pyrrolo[3,2-c]pyridin]-4′(5′H)-one]	92.8	718
0.35 nM	3640	COc1c(Cl)cccc1Nc1c(-c2ccncc2OC[C@@H]2CCCO2)[nH]c2c1C(=O)NCC2CC=C(F)F (single isomer, unassigned) [Example 100]	58.9	990
0.178 nM	17000	COCC(C)Oc1cnccc1-c1[nH]c2c(c1Nc1cccc(Cl)c1OC)C(=O)N[C@H](C)C2 (mixture of isomers) [Example 41, (6R)-3-(3-chloro-2-methoxy-anilino)-2-{3-[(1-methoxypropan-2-yl)oxy]-4-pyridyl}-6-methyl-1,5,6,7-tetrahydropyrrolo[3,2-c]pyridin-4-one]	39.8	479
0.18 nM	11600	Cc1c(Cl)cccc1Nc1c(-c2ccncc2OC[C@H]2CN(C)CCO2)[nH]c2c1C(=O)N[C@H](C)C2 [Example 106, (6R)-3-(3-chloro-2-methylanilino)-6-methyl-2-(3-{[(2R)-4-methylmorpholin-2-yl]methoxy}pyridin-4-yl)-1,5,6,7-tetrahydro-4H-pyrrolo[3,2-c]pyridin-4-one]	318	3020
0.285 nM	16400	Cc1c(Cl)cccc1Nc1c(-c2ccncc2OC[C@@H]2CCCO2)[nH]c2c1C(=O)NCC2C (single isomer, unassigned) [Example 59]	41.9	609
0.4 nM	5420	COc1c(Cl)cccc1Nc1c(-c2ccncc2OC[C@@H]2COCCN2C)[nH]c2c1C(=O)N[C@H](C)C2 [Example 93, (6R)-3-(3-chloro-2-methoxyanilino)-6-methyl-2-(3-{[(3S)-4-methylmorpholin-3-yl]methoxy}pyridin-4-yl)-1,5,6,7-tetrahydro-4H-pyrrolo[3,2-c]pyridin-4-one]	8.67	254
0.101 nM	8240	COc1c(F)cccc1Nc1c(-c2ccncc2OC[C@@H]2CCCO2)[nH]c2c1C(=O)NC(C)C2 (single isomer, unassigned) [Example 9]	104	644
0.142 nM	10000	COc1c(Cl)cccc1Nc1c(-c2ccncc2OCC2COCCO2)[nH]c2c1C(=O)N[C@@H]1CCC[C@H]21 (mixture of isomers) [Example 52, (5aR,8aS)-3-(3-chloro-2-methoxyanilino)-2-{3-[(1,4-dioxan-2-yl)methoxy]-4-pyridyl}-5,5a,6,7,8,8a-hexahydrocyclopenta[b]pyrrolo[2,3-d]pyridin-4(1)-one]	38.9	407
0.119 nM	> 20000	COc1c(Cl)cccc1Nc1c(-c2ccncc2OC[C@@H]2CCCO2)[nH]c2c1C(=O)NCC2C (single isomer, unassigned) [Example 31]	125	2770
0.172 nM	> 20000	COc1c(Cl)cccc1Nc1c(-c2ccncc2OC[C@@H]2CN(CC(F)F)CCO2)[nH]c2c1C(=O)N[C@H](C)C2 [Example 12, (6R)-3-(3-chloro-2-methoxyanilino)-2-(3-{[(2S)-4-(2,2-difluoroethyl)morpholin-2-yl]methoxy}pyridin-4-yl)-6-methyl-1,5,6,7-tetrahydro-4H-pyrrolo[3,2-c]pyridin-4-one]	48.7	719

Compound	mutEGFR (D770_N771insSVD) kinase assay IC50 [2]	IC50 (Bub1) [nM]	GI50 [1] [nM]	GI50 (Ba/F3-EGFR-WT cells) [nM]
COc1c(Cl)cccc1Nc1c(-c2ccncc2OCCC2CCCCO2)[nH]c2c1C(=O)N[C@H](C)C2 (single isomer, unassigned) [Example 88]	0.326 nM	978	70.4	634
